Measurements published in PubChem BioAssay (NCI).
Several values for one entry are separate records, joined by “and”; a condition that tells them apart may be missing. Identical values can stand only once.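 Compound exposure: 48 hours, 5 concentrations, 96-well plates. At the GI50, growth is halved. At the TGI there is no net growth.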

How the values were obtained:
Experiment in all cases: DTP human tumour cell line panel, 48 h
786-0 renal = test system: 786-0 renal
A498 renal = test system: A498 renal
A549 NSCLC = test system: A549 NSCLC
ACHN renal = test system: ACHN renal
BT-549 breast = test system: BT-549 breast
CAKI-1 renal = test system: CAKI-1 renal
CCRF-CEM leukemia = test system: CCRF-CEM leukemia
COLO 205 colon = test system: COLO 205 colon
DU-145 prostate = test system: DU-145 prostate
EKVX NSCLC = test system: EKVX NSCLC
HCC-2998 colon = test system: HCC-2998 colon
HCT-116 colon = test system: HCT-116 colon
HCT-15 colon = test system: HCT-15 colon
HL-60(TB) leukemia = test system: HL-60(TB) leukemia
HOP-62 NSCLC = test system: HOP-62 NSCLC
HOP-92 NSCLC = test system: HOP-92 NSCLC
HS 578T breast = test system: HS 578T breast
HT29 colon = test system: HT29 colon
IGROV1 ovarian = test system: IGROV1 ovarian
K-562 leukemia = test system: K-562 leukemia
KM12 colon = test system: KM12 colon
LOX IMVI melanoma = test system: LOX IMVI melanoma
M14 melanoma = test system: M14 melanoma
MALME-3M melanoma = test system: MALME-3M melanoma
MCF7 breast = test system: MCF7 breast
MDA-MB-231 breast = test system: MDA-MB-231 breast
MDA-MB-435 = test system: MDA-MB-435
MOLT-4 leukemia = test system: MOLT-4 leukemia
NCI-H226 lung = test system: NCI-H226 lung
NCI-H23 lung = test system: NCI-H23 lung
NCI-H460 lung = test system: NCI-H460 lung
NCI-H522 lung = test system: NCI-H522 lung
NCI/ADR-RES ovarian = test system: NCI/ADR-RES ovarian
OVCAR-3 ovarian = test system: OVCAR-3 ovarian
OVCAR-4 ovarian = test system: OVCAR-4 ovarian
OVCAR-5 ovarian = test system: OVCAR-5 ovarian
OVCAR-8 ovarian = test system: OVCAR-8 ovarian
PC-3 prostate = test system: PC-3 prostate
RPMI-8226 leukemia = test system: RPMI-8226 leukemia
RXF 393 renal = test system: RXF 393 renal
SF-268 CNS = test system: SF-268 CNS
SF-295 CNS = test system: SF-295 CNS
SF-539 CNS = test system: SF-539 CNS
SK-MEL-2 melanoma = test system: SK-MEL-2 melanoma
SK-MEL-28 melanoma = test system: SK-MEL-28 melanoma
SK-MEL-5 melanoma = test system: SK-MEL-5 melanoma
SK-OV-3 ovarian = test system: SK-OV-3 ovarian
SN12C renal = test system: SN12C renal
SNB-19 CNS = test system: SNB-19 CNS
SNB-75 CNS = test system: SNB-75 CNS
SR leukemia = test system: SR leukemia
SW-620 colon = test system: SW-620 colon
T-47D breast = test system: T-47D breast
TK-10 renal = test system: TK-10 renal
U251 CNS = test system: U251 CNS
UACC-257 melanoma = test system: UACC-257 melanoma
UACC-62 melanoma = test system: UACC-62 melanoma
UO-31 renal = test system: UO-31 renal

Compound: COc1cc(/C=C(/C)[N+](=O)[O-])ccc1O
- GI50 (786-0 renal): 1.79 µM and 1.94 µM
- TGI (786-0 renal): 3.26 µM and 3.51 µM
- GI50 (A498 renal): 5.89 µM and 11.6 µM
- TGI (A498 renal): 13.7 µM and 23.8 µM
- GI50 (A549 NSCLC): 3.94 µM and 2.5 µM
- TGI (A549 NSCLC): 14.6 µM and 7.07 µM
- GI50 (ACHN renal): 2.38 µM and 1.9 µM
- TGI (ACHN renal): 5.44 µM and 4 µM
- GI50 (BT-549 breast): 2.34 µM and 3.08 µM
- TGI (BT-549 breast): 4.67 µM and 8.82 µM
- GI50 (CAKI-1 renal): 2.17 µM and 1.38 µM
- TGI (CAKI-1 renal): 6.07 µM and 3.26 µM
- GI50 (CCRF-CEM leukemia): 1.85 µM
- TGI (CCRF-CEM leukemia): 4.91 µM
- GI50 (COLO 205 colon): 1.99 µM and 1.45 µM
- TGI (COLO 205 colon): 3.99 µM and 2.85 µM
- GI50 (DU-145 prostate): 2.01 µM and 1.59 µM
- TGI (DU-145 prostate): 4.11 µM and 3.26 µM
- GI50 (EKVX NSCLC): 6.55 µM and 2.84 µM
- TGI (EKVX NSCLC): 18.7 µM and 14.6 µM
- GI50 (HCC-2998 colon): 1.77 µM and 1.68 µM
- TGI (HCC-2998 colon): 3.28 µM and 3.08 µM
- GI50 (HCT-116 colon): 1.65 µM and 1.71 µM
- TGI (HCT-116 colon): 3.12 µM and 3.29 µM
- GI50 (HCT-15 colon): 2.34 µM and 2 µM
- TGI (HCT-15 colon): 7.4 µM and 6.21 µM
- GI50 (HL-60(TB) leukemia): 2.75 µM
- TGI (HL-60(TB) leukemia): 7.01 µM
- GI50 (HOP-62 NSCLC): 2.46 µM
- TGI (HOP-62 NSCLC): 6.01 µM
- GI50 (HOP-92 NSCLC): 1.62 µM and 1.84 µM
- TGI (HOP-92 NSCLC): 4.4 µM and 4.28 µM
- GI50 (HS 578T breast): 4.67 µM
- TGI (HS 578T breast): > 28.4 µM
- GI50 (HT29 colon): 2.63 µM
- TGI (HT29 colon): 6.09 µM
- GI50 (IGROV1 ovarian): 2.89 µM and 1.57 µM
- TGI (IGROV1 ovarian): 8.54 µM and 5.14 µM
- GI50 (K-562 leukemia): 1.47 µM
- TGI (K-562 leukemia): > 100 µM
- GI50 (KM12 colon): 2.97 µM and 1.93 µM
- TGI (KM12 colon): 7.52 µM and 3.75 µM
- GI50 (LOX IMVI melanoma): 1.59 µM and 1.58 µM
- TGI (LOX IMVI melanoma): 3.27 µM and 3 µM
- GI50 (M14 melanoma): 1.83 µM and 1.85 µM
- TGI (M14 melanoma): 3.79 µM and 3.6 µM
- GI50 (MALME-3M melanoma): 2 µM and 1.53 µM
- TGI (MALME-3M melanoma): 4.08 µM and 3.58 µM
- GI50 (MCF7 breast): 1.44 µM and 1.37 µM
- TGI (MCF7 breast): 3.39 µM and 2.9 µM
- GI50 (MDA-MB-231 breast): 2.14 µM and 2.64 µM
- TGI (MDA-MB-231 breast): 5.5 µM and 7.44 µM
- GI50 (MDA-MB-435): 2.16 µM and 1.64 µM
- TGI (MDA-MB-435): 6.33 µM and 4.4 µM
- GI50 (MOLT-4 leukemia): 3.3 µM
- TGI (MOLT-4 leukemia): 9.14 µM
- GI50 (NCI-H226 lung): 2.58 µM and 4.07 µM
- TGI (NCI-H226 lung): 6.96 µM and 14.2 µM
- GI50 (NCI-H23 lung): 2.05 µM and 2.09 µM
- TGI (NCI-H23 lung): 5.23 µM
- GI50 (NCI-H460 lung): 2.52 µM and 2.22 µM
- TGI (NCI-H460 lung): 7.15 µM and 6.05 µM
- GI50 (NCI-H522 lung): 0.46 µM and 0.282 µM
- TGI (NCI-H522 lung): 1.4 µM and 1.09 µM
- GI50 (NCI/ADR-RES ovarian): 3.18 µM and 3.08 µM
- TGI (NCI/ADR-RES ovarian): 11.8 µM and 10.9 µM
- GI50 (OVCAR-3 ovarian): 1.96 µM and 1.61 µM
- TGI (OVCAR-3 ovarian): 3.46 µM and 3.17 µM
- GI50 (OVCAR-4 ovarian): 2.62 µM and 1.69 µM
- TGI (OVCAR-4 ovarian): 7.6 µM and 3.18 µM
- GI50 (OVCAR-5 ovarian): 3.47 µM and 2.66 µM
- TGI (OVCAR-5 ovarian): 10.1 µM and 7.96 µM
- GI50 (OVCAR-8 ovarian): 2.86 µM and 2.73 µM
- TGI (OVCAR-8 ovarian): 9.5 µM and 7.93 µM
- GI50 (PC-3 prostate): 2.68 µM and 2.74 µM
- TGI (PC-3 prostate): 7.27 µM and 6.86 µM
- GI50 (RPMI-8226 leukemia): 0.737 µM and 1.73 µM
- TGI (RPMI-8226 leukemia): 2.53 µM and 4.25 µM
- GI50 (RXF 393 renal): 1.72 µM and 1.8 µM
- TGI (RXF 393 renal): 3.24 µM and 3.31 µM
- GI50 (SF-268 CNS): 2.73 µM and 1.92 µM
- TGI (SF-268 CNS): 6.94 µM and 4.51 µM
- GI50 (SF-295 CNS): 9.45 µM and 2.77 µM
- TGI (SF-295 CNS): 22.4 µM and 8.89 µM
- GI50 (SF-539 CNS): 2 µM and 1.81 µM
- TGI (SF-539 CNS): 4 µM and 3.68 µM
- GI50 (SK-MEL-2 melanoma): 2.15 µM and 1.7 µM
- TGI (SK-MEL-2 melanoma): 4.3 µM and 3.49 µM
- GI50 (SK-MEL-28 melanoma): 1.81 µM and 1.87 µM
- TGI (SK-MEL-28 melanoma): 3.87 µM and 3.88 µM
- GI50 (SK-MEL-5 melanoma): 1.91 µM and 1.9 µM
- TGI (SK-MEL-5 melanoma): 3.92 µM and 3.57 µM
- GI50 (SK-OV-3 ovarian): 8.15 µM and 4.78 µM
- TGI (SK-OV-3 ovarian): 20.4 µM and 16.9 µM
- GI50 (SN12C renal): 2.2 µM and 2.43 µM
- TGI (SN12C renal): 5.98 µM and 9.43 µM
- GI50 (SNB-19 CNS): 4.55 µM and 5.02 µM
- TGI (SNB-19 CNS): 16.2 µM and 17.5 µM
- GI50 (SNB-75 CNS): 3.64 µM and 1.91 µM
- TGI (SNB-75 CNS): 15.1 µM and 8.45 µM
- GI50 (SR leukemia): 1.12 µM
- TGI (SR leukemia): 11.2 µM
- GI50 (SW-620 colon): 1.69 µM and 1.57 µM
- TGI (SW-620 colon): 3.67 µM and 3.11 µM
- GI50 (T-47D breast): 2.07 µM and 2.25 µM
- TGI (T-47D breast): 5.05 µM and 5.72 µM
- GI50 (TK-10 renal): 1.97 µM and 1.48 µM
- TGI (TK-10 renal): 3.57 µM and 2.82 µM
- GI50 (U251 CNS): 1.77 µM and 1.87 µM
- TGI (U251 CNS): 3.79 µM and 3.7 µM
- GI50 (UACC-257 melanoma): 1.66 µM and 1.61 µM
- TGI (UACC-257 melanoma): 3.39 µM and 3.25 µM
- GI50 (UACC-62 melanoma): 1.77 µM and 1.8 µM
- TGI (UACC-62 melanoma): 3.7 µM and 3.71 µM
- GI50 (UO-31 renal): 1.53 µM and 1.41 µM
- TGI (UO-31 renal): 3.19 µM and 3.39 µM
